In patent publication US20230049952A1, “METHODS AND COMPOUNDS FOR RESTORING MUTANT P53 FUNCTION” (PMV Pharmaceuticals, Inc., priority 2020, published 2023):

Test system: p53 signaling pathway in MT373 tumors
Assay: MT373 syngeneic sarcoma model: mouse p53 signaling pathway profiling panel
Assay type: in vivo

CCn1c(C#CCNc2ccccc2)cc2cc(CNC3CCN(C)CC3)ccc21 [Compound 1, 1-Anilino-3-{1-ethyl-5-[(1-methyl-4-piperidylamino)methyl]-1H-indol-2-yl}-2-propyne]
Casp2 fold increase or percent reduction vs vehicle control (75 mg/kg BIDx1, 24 h): 16.13 fold or % | Ccnb1 fold increase or percent reduction vs vehicle control (75 mg/kg BIDx1, 24 h): 65.51 fold or % | Ccne1 fold increase or percent reduction vs vehicle control (75 mg/kg BIDx1, 24 h): 29.87 fold or % | Ccng1 fold increase or percent reduction vs vehicle control (75 mg/kg BIDx1, 24 h): 4.63 fold or % | Ccnh fold increase or percent reduction vs vehicle control (75 mg/kg BIDx1, 24 h): 3.31 fold or % | Cdc25a fold increase or percent reduction vs vehicle control (75 mg/kg BIDx1, 24 h): 34.15 fold or % | Cdk1 fold increase or percent reduction vs vehicle control (75 mg/kg BIDx1, 24 h): 59.92 fold or % | Cdk4 fold increase or percent reduction vs vehicle control (75 mg/kg BIDx1, 24 h): 40.50 fold or % | Cdkn1a fold increase or percent reduction vs vehicle control (75 mg/kg BIDx1, 24 h): 5.16 fold or % | Cdkn2a fold increase or percent reduction vs vehicle control (75 mg/kg BIDx1, 24 h): 16.83 fold or % | Chek1 fold increase or percent reduction vs vehicle control (75 mg/kg BIDx1, 24 h): 52.36 fold or % | Cradd fold increase or percent reduction vs vehicle control (75 mg/kg BIDx1, 24 h): 5.90 fold or % | Cul9 fold increase or percent reduction vs vehicle control (75 mg/kg BIDx1, 24 h): 1.58 fold or % | Dapk1 fold increase or percent reduction vs vehicle control (75 mg/kg BIDx1, 24 h): 1.19 fold or % | Dnmt1 fold increase or percent reduction vs vehicle control (75 mg/kg BIDx1, 24 h): 17.60 fold or % | E2f1 fold increase or percent reduction vs vehicle control (75 mg/kg BIDx1, 24 h): 10.67 fold or % | E2f3 fold increase or percent reduction vs vehicle control (75 mg/kg BIDx1, 24 h): 27.77 fold or % | Egfr fold increase or percent reduction vs vehicle control (75 mg/kg BIDx1, 24 h): 28.18 fold or % | Egr1 fold increase or percent reduction vs vehicle control (75 mg/kg BIDx1, 24 h): 64.73 fold or % | Ep300 fold increase or percent reduction vs vehicle control (75 mg/kg BIDx1, 24 h): 3.09 fold or % | Ercc1 fold increase or percent reduction vs vehicle control (75 mg/kg BIDx1, 24 h): 18.66 fold or % | Esr1 fold increase or percent reduction vs vehicle control (75 mg/kg BIDx1, 24 h): 1.26 fold or % | Fadd fold increase or percent reduction vs vehicle control (75 mg/kg BIDx1, 24 h): 5.60 fold or % | Fas fold increase or percent reduction vs vehicle control (75 mg/kg BIDx1, 24 h): 1.45 fold or % | Fasl fold increase or percent reduction vs vehicle control (75 mg/kg BIDx1, 24 h): 10.36 fold or % | Foxo3 fold increase or percent reduction vs vehicle control (75 mg/kg BIDx1, 24 h): 3.58 fold or % | Gadd45a fold increase or percent reduction vs vehicle control (75 mg/kg BIDx1, 24 h): 19.41 fold or % | Hif1a fold increase or percent reduction vs vehicle control (75 mg/kg BIDx1, 24 h): 13.43 fold or % | Il6 fold increase or percent reduction vs vehicle control (75 mg/kg BIDx1, 24 h): 70.78 fold or % | Jun fold increase or percent reduction vs vehicle control (75 mg/kg BIDx1, 24 h): 38.98 fold or % | Kras fold increase or percent reduction vs vehicle control (75 mg/kg BIDx1, 24 h): 13.87 fold or % | Lig4 fold increase or percent reduction vs vehicle control (75 mg/kg BIDx1, 24 h): 1.17. fold or % | Mdm2 fold increase or percent reduction vs vehicle control (75 mg/kg BIDx1, 24 h): 2.76 fold or % | Mdm4 fold increase or percent reduction vs vehicle control (75 mg/kg BIDx1, 24 h): 1.07 fold or % | Mel1 fold increase or percent reduction vs vehicle control (75 mg/kg BIDx1, 24 h): 15.14 fold or % | Mlh1 fold increase or percent reduction vs vehicle control (75 mg/kg BIDx1, 24 h): 9.12 fold or % | Msh2 fold increase or percent reduction vs vehicle control (75 mg/kg BIDx1, 24 h): 29.40 fold or % | Myod1 fold increase or percent reduction vs vehicle control (75 mg/kg BIDx1, 24 h): 3.54 fold or % | Nf1 fold increase or percent reduction vs vehicle control (75 mg/kg BIDx1, 24 h): 16.46 fold or % | Nfkb1 fold increase or percent reduction vs vehicle control (75 mg/kg BIDx1, 24 h): 15.21 fold or % | Pcna fold increase or percent reduction vs vehicle control (75 mg/kg BIDx1, 24 h): 43.21 fold or % | Pmaip1 fold increase or percent reduction vs vehicle control (75 mg/kg BIDx1, 24 h): 3.81 fold or % | Ppm1d fold increase or percent reduction vs vehicle control (75 mg/kg BIDx1, 24 h): 1.26 fold or % | Prc1 fold increase or percent reduction vs vehicle control (75 mg/kg BIDx1, 24 h): 26.03 fold or % | Prkca fold increase or percent reduction vs vehicle control (75 mg/kg BIDx1, 24 h): 16.45 fold or % | Pten fold increase or percent reduction vs vehicle control (75 mg/kg BIDx1, 24 h): 1.18 fold or % | Pttg1 fold increase or percent reduction vs vehicle control (75 mg/kg BIDx1, 24 h): 1.07 fold or % | Rb1 fold increase or percent reduction vs vehicle control (75 mg/kg BIDx1, 24 h): 1.14 fold or % | Rela fold increase or percent reduction vs vehicle control (75 mg/kg BIDx1, 24 h): 32.18 fold or % | Rprm fold increase or percent reduction vs vehicle control (75 mg/kg BIDx1, 24 h): 1.77 fold or % | Serpinb5 fold increase or percent reduction vs vehicle control (75 mg/kg BIDx1, 24 h): 1.20 fold or % | Sesn2 fold increase or percent reduction vs vehicle control (75 mg/kg BIDx1, 24 h): 2.05 fold or % | Sfn fold increase or percent reduction vs vehicle control (75 mg/kg BIDx1, 24 h): 15.25 fold or % | Sirt1 fold increase or percent reduction vs vehicle control (75 mg/kg BIDx1, 24 h): 6.13 fold or % | Stat1 fold increase or percent reduction vs vehicle control (75 mg/kg BIDx1, 24 h): 1.08 fold or % | Tnf fold increase or percent reduction vs vehicle control (75 mg/kg BIDx1, 24 h): 24.76 fold or % | Traf1 fold increase or percent reduction vs vehicle control (75 mg/kg BIDx1, 24 h): 1.06 fold or % | Trp53bp2 fold increase or percent reduction vs vehicle control (75 mg/kg BIDx1, 24 h): 5.61 fold or % | Trp53 fold increase or percent reduction vs vehicle control (75 mg/kg BIDx1, 24 h): 18.16 fold or % | Apex1 fold increase or percent reduction vs vehicle control (75 mg/kg BIDx1, 48 h): 21.30 fold or % | Atm fold increase or percent reduction vs vehicle control (75 mg/kg BIDx1, 48 h): 18.31 fold or % | Atr fold increase or percent reduction vs vehicle control (75 mg/kg BIDx1, 48 h): 14.07 fold or % | Bag1 fold increase or percent reduction vs vehicle control (75 mg/kg BIDx1, 48 h): 42.29 fold or % | Bax fold increase or percent reduction vs vehicle control (75 mg/kg BIDx1, 48 h): 23.39 fold or % | Bbc3 fold increase or percent reduction vs vehicle control (75 mg/kg BIDx1, 48 h): 1.32 fold or % | Bid fold increase or percent reduction vs vehicle control (75 mg/kg BIDx1, 48 h): 1.21 fold or % | Birc5 fold increase or percent reduction vs vehicle control (75 mg/kg BIDx1, 48 h): 50.48 fold or % | Brca1 fold increase or percent reduction vs vehicle control (75 mg/kg BIDx1, 48 h): 31.46 fold or % | Brca2 fold increase or percent reduction vs vehicle control (75 mg/kg BIDx1, 48 h): 25.33 fold or % | Btg2 fold increase or percent reduction vs vehicle control (75 mg/kg BIDx1, 48 h): 11.23 fold or % | Casp2 fold increase or percent reduction vs vehicle control (75 mg/kg BIDx1, 48 h): 9.89 fold or % | Ccnb1 fold increase or percent reduction vs vehicle control (75 mg/kg BIDx1, 48 h): 59.73 fold or % | Ccne1 fold increase or percent reduction vs vehicle control (75 mg/kg BIDx1, 48 h): 5.97 fold or % | Ccng1 fold increase or percent reduction vs vehicle control (75 mg/kg BIDx1, 48 h): 9.36 fold or % | Ccnh fold increase or percent reduction vs vehicle control (75 mg/kg BIDx1, 48 h): 12.98 fold or % | Cdc25a fold increase or percent reduction vs vehicle control (75 mg/kg BIDx1, 48 h): 16.12 fold or % | Cdk1 fold increase or percent reduction vs vehicle control (75 mg/kg BIDx1, 48 h): 55.02 fold or % | Cdk4 fold increase or percent reduction vs vehicle control (75 mg/kg BIDx1, 48 h): 48.77 fold or % | Cdkn1a fold increase or percent reduction vs vehicle control (75 mg/kg BIDx1, 48 h): 1.03 fold or % | Cdkn2a fold increase or percent reduction vs vehicle control (75 mg/kg BIDx1, 48 h): 23.77 fold or % | Chek1 fold increase or percent reduction vs vehicle control (75 mg/kg BIDx1, 48 h): 37.45 fold or % | Cradd fold increase or percent reduction vs vehicle control (75 mg/kg BIDx1, 48 h): 13.67 fold or % | Cul9 fold increase or percent reduction vs vehicle control (75 mg/kg BIDx1, 48 h): 2.20 fold or % | Dapk1 fold increase or percent reduction vs vehicle control (75 mg/kg BIDx1, 48 h): 1.46 fold or %
